From patent US9714249B2 (Novartis AG, priority 2013, dated 2017)

Key:
THP-1 cells = test: Cell growth inhibition assay (CellTiter-Glo), THP-1; assay type: cell-based, human; details: THP-1, 4 days; for GI50: Homo sapiens, 96 h, half-maximal growth inhibition; for THP-1 TGI: total growth inhibition
Procedure, shortened: (§1)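 Growth of each leukemia line in its own serum-containing medium was measured by CellTiter-Glo ATP luminescence after 4 days at 37 °C with 3-fold serial dilutions starting at 10 μM (0.1% DMSO). Readings were corrected for background and day 0, scaled so that vehicle is 100% and medium-only is −100%, and 4-parameter fits gave IC50 and TGI.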

[1] = molecular target: CREBBP bromodomain (His-CREBBP (1081-1197)) (Homo sapiens (Human), UniProt Q92793); test: AlphaScreen in-vitro binding assay for CREBBP; details: acetyl-histone H4 peptide
MV-4-11 cells = test: Cell growth inhibition assay (CellTiter-Glo), MV-4-11; assay type: cell-based, human; details: MV-4-11, 4 days; for GI50: Homo sapiens, MV4-11, 96 h, half-maximal growth inhibition; for MV-4-11 TGI: total growth inhibition
Procedure, shortened: as §1

BRD4 (His-Brd4(44-477)) = BRD4 (His-Brd4(44-477)) (Homo sapiens (Human), UniProt O60885); test: TR-FRET in-vitro binding assay for BRD4; details: acetyl-histone H4 peptide
Protocol: All assays were performed in 384 well microtiter plates. Each assay plate contained 8-point serial dilutions for 40 test compounds, plus 16 high- and 16 low controls. Liquid handling and incubation steps were done on an Innovadyne Nanodrop Express equipped with a robotic arm (Thermo CatX, Perkin Elmer/Caliper Twister II) and an incubator (Liconic STX40, Thermo Cytomat 2C450). The assay plates were prepared by addition of 50 nl per well of compound solution in 90% DMSO HummingBird nanodispenser (Zinsser Analytic). […] Reactions were incubated at 30° C. for 35 minutes. […] After 35 minutes incubation at 30° C., plates were measured in a Perkin Elmer EnVision multilabel reader.
Test compounds were dissolved in DMSO (10 mM) and transferred into 1.4 mL flat bottom or V-shaped Matrix tubes carrying a unique 2D matrix. The stock solutions were stored at […] if not used immediately. For the test procedure the vials were defrosted and identified by a scanner whereby a working sheet was generated that guided the subsequent working steps. Compound dilutions were made in 96 well plates. This format enabled the assay of maximally 40 individual test compounds at 8 concentrations (single points) including 4 reference compounds, if desired (known BET inhibitors from the prior art, for this and other assays of the type disclosed herein). The dilution protocol included the production of “pre-dilution plates”, “master plates” and “assay plates”.
Pre-dilution plates: 96 polypropylene well plates were used as pre-dilution plates. A total of 4 pre-dilution plates were prepared including 10 test compounds each on the plate positions A1-A10, one standard compound at A11 and one DMSO control at A12. All dilution steps were done on a HamiltonSTAR robot. […] These plates were used directly for the assay which was performed in a total volume of 13.55 μL. […] Cell Growth Inhibition Assay

Sequence of CREBBP bromodomain (His-CREBBP (1081-1197)) (Q92793 1081-1197): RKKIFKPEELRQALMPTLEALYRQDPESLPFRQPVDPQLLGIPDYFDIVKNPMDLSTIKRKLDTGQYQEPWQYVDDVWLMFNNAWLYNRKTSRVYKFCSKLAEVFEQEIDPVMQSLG

GI50 (THP-1 cells) [nM]	IC50 [1] [nM]	GI50 (MV-4-11 cells) [nM]	IC50 (BRD4 (His-Brd4(44-477))) [nM]	Structure (SMILES)	THP-1 TGI (THP-1 cells) [nM]	MV-4-11 TGI (MV-4-11 cells) [nM]
209	4700	105	110	COc1ncc(-n2nc3c(c2C)C(=O)N(c2cc(C)c(=O)n(C)c2)C3c2ccc(Cl)cc2)cn1 (stereo not drawn) [Example 21b, 6-(4-chlorophenyl)-5-(1,5-dimethyl-6-oxo-1,6-dihydropyridin-3-yl)-2-(2-methoxypyrimidin-5-yl)-3-methyl-5,6-dihydropyrrolo[3,4-c]pyrazol-4(2H)-one]	396	208
36.6	1900	18.6	40	Cc1nn(C2CC2)c2c1C(=O)N(c1cc(C)c(=O)n(C)c1)C2c1ccc(Cl)cc1 (stereo not drawn) [Example 11, 6-(4-chlorophenyl)-1-cyclopropyl-5-(1,5-dimethyl-6-oxo-1,6-dihydropyridin-3-yl)-3-methyl-5,6-dihydropyrrolo[3,4-c]pyrazol-4(1H)-one]	82.2	29.4
104	1900	56.7	41	COc1ncccc1-n1nc2c(c1C)C(=O)N(c1cc(Cl)c(=O)n(C)c1)C2c1ccc(Cl)cc1 (stereo not drawn) [Example 7b, 5-(5-chloro-1-methyl-6-oxo-1,6-dihydropyridin-3-yl)-6-(4-chlorophenyl)-2-(2-methoxypyridin-3-yl)-3-methyl-5,6-dihydropyrrolo[3,4-c]pyrazol-4(2H)-one]	285	82.4
